Data set [1] relates to MIF. The data set is described as follows: Open-label biomarker study in ALS subjects: serum MIF level before and after ibudilast. The following applies: 19 ALS subjects who completed the study. It is filed as in vivo, human. As for the experimental part:
This was a multi-center, open-label study with a 6 weeks Screening Phase, 36 weeks Treatment Phase, and a Follow-up Phase 4 weeks after the last dose. Ibudilast was orally administered 50 mg b.i.d. for a total daily dose of 100 mg/day.
The objectives of the Study were (i) to measure the impact of ibudilast on [11C]-PBR28 uptake in the motor cortices and brain stem measured by positron emission tomography (PET) imaging at 24 weeks; (ii) to measure the impact of ibudilast on several markers of neuro-inflammation measured by blood biomarkers; and (iii) to evaluate safety and tolerability.
Out of the 46 patients screened, eleven (11) individuals were screen failures. Total of the 35 enrolled subjects were enrolled. Of the 35 enrolled subjects, 16 subjects (45.7%) terminated the study early, and 19 subjects completed the trial. Of these 16 early study withdrawals, 11 (68.8%) were attributed to AEs and 5 (31.2%) were attributed to consent withdrawn.
Serum samples for the 19 subjects who completed the study were evaluated for MIF level before treatment and after treatment with ibudilast. • Mean (SD) pre-treatment serum MIF=422,989 (233,440) pg/ml • Mean (SD) post-treatment serum MIF=300,922 (113,843) pg/ml • Mean (SE) change/month=−19, 845 (8934) pg/ml (p=0.03)

For data set [2] the following is noted: in vivo; cited from earlier work.
Data set [3] relates to migration inhibitory factor (MIF). Nature of the data set: Randomized, double-blind, placebo-controlled study in COVID-19 subjects at risk for ARDS: plasma MIF level.
Protocol: The study consisted of a Screening Phase followed by a Treatment and Follow-up Phase. Following the Screening Phase, if the subject met eligibility criteria, subject was administered treatment with ibudilast or placebo. Subjects received ibudilast 100 mg/d (50 mg b.i.d) or placebo every day for 7 days. Upon completion of the 7-day Treatment Phase, subject was followed-up at Day 14 and at Day 28 post baseline.
The following screening assessments were performed upon signing the ICF: inclusion/exclusion criteria review, physical examination, assess vital signs and O2 use, clinical status using the NIAID scale, ECG, draw blood for plasma cytokines that include: migration inhibitory factor (MIF), interleukin 1-beta (IL-1β), interleukin 6 (IL-6), tumor necrosis factor (TNF-α), and C-reactive protein (CRP). Pharmacokinetic (PK) samples, complete blood count (CBC), comprehensive metabolic panel (CMP), D-dimer, and coagulation tests were also be drawn.
On Day 1 (Baseline) of the Treatment Phase, hospitalized subjects were treated with ibudilast (oral, 50 mg (5 capsules) b.i.d) or placebo for a 7-day period. Subjects underwent study-related procedures including physical examination, vital signs, clinical status assessment using the NIAID scale, O2 use, ECG, blood collection of biomarkers, PK, CBC, CMP, D-dimer and coagulation and information on adverse events and concomitant medications were recorded.
The Follow-up Phase consisted of two visits, Day 14 (±3 d) and Day 28 (±3 d). • Day 14 (in-patient): On Day 14, conducted physical examination, clinical status, vital signs and O2 use, ECG, CBC, CMP, D-dimer, and coagulation tests, biomarkers, AE and conmed review, and recorded survival status. • Day 28 (telephone follow-up if patient was no longer hospitalized) On Day 28, clinical status and survival status were recorded.
[4] abbreviates: COVID-19 subject A, ibudilast oral 50 mg b.i.d. for 7 days.
[5] abbreviates: COVID-19 subject B, ibudilast oral 50 mg b.i.d. for 7 days.
Where [6] appears, read: COVID-19 subject C, ibudilast oral 50 mg b.i.d. for 7 days.
The mark [7] stands for this setting: COVID-19 subject D, ibudilast oral 50 mg b.i.d. for 7 days.
The mark [8] stands for this setting: mean of 4 COVID-19 subjects, ibudilast oral 50 mg b.i.d. for 7 days.

In the case of `CC(C)C(=O)c1c(C(C)C)nn2ccccc12` [ibudilast, 2-methyl-1-(2-(1-methylethyl)pyrazolo(1,5-a)pyridin-3-yl)1-propanone], the “Mean (SD) post-treatment serum MIF” value in data set [1] (after ibudilast oral 50 mg b.i.d. (100 mg/day), 36 weeks Treatment Phase) is listed as 300,922 (113,843) pg/ml. Moreover, the “Mean (SD) pre-treatment serum MIF” value in data set [1] (before treatment) is given as 422,989 (233,440) pg/ml. Moreover, in data set [2], the CNS penetration result is on record as “good CNS penetration”. The “Difference of mean change of MIF level between ibudilast-treated group and placebo group” value in data set [3] (4 ibudilast vs 4 placebo COVID-19 subjects, p value=0.00552) is 17277 pg/mL. Besides, the “Plasma MIF level pre-treatment, Subject A” value in data set [3] (COVID-19 subject A, ibudilast-treated group, before treatment) is recorded as 25267 pg/mL. Besides, in data set [3] (setting [4]), the “Plasma MIF level difference (post minus pre), Subject A” value was -11130 pg/mL and the “Plasma MIF level post-treatment, Subject A” value worked out at 14137 pg/mL. For the same compound, the “Plasma MIF level pre-treatment, Subject B” value in data set [3] (COVID-19 subject B, ibudilast-treated group, before treatment) was found to be 21130 pg/mL. Besides, in data set [3] (setting [5]), the “Plasma MIF level difference (post minus pre), Subject B” value was -1497 pg/mL and the “Plasma MIF level post-treatment, Subject B” value was 19633 pg/mL. Besides, the “Plasma MIF level pre-treatment, Subject C” value in data set [3] (COVID-19 subject C, ibudilast-treated group, before treatment) is on record as 17763 pg/mL. In data set [3] (setting [6]), the “Plasma MIF level difference (post minus pre), Subject C” value was -12037 pg/mL and the “Plasma MIF level post-treatment, Subject C” value worked out at 5726 pg/mL. For the same compound, in data set [3] (COVID-19 subject D, ibudilast-treated group, before treatment), the “Plasma MIF level pre-treatment, Subject D” value was found to be 27005 pg/mL. For the same compound, in data set [3] (setting [7]), the “Plasma MIF level difference (post minus pre), Subject D” value is -18433 pg/mL and the “Plasma MIF level post-treatment, Subject D” value is on record as 8572 pg/mL. Besides, the “Mean pre-treatment plasma MIF level” value in data set [3] (mean of 4 COVID-19 subjects, ibudilast-treated group, before treatment) amounted to 22791.3 pg/mL. For the same compound, in data set [3] (setting [8]), the “Mean change MIF level” value was -110774.3 pg/mL and the “Mean post-treatment plasma MIF level” value is on record as 12017 pg/mL. The “Mean change MIF level” value in data set [3] (mean of 4 COVID-19 subjects, ibudilast oral 50 mg b.i.d. for 7 days, listed as Ibudilast) is -10774.3 pg/mL.

(Values after patent US12213966B2, “Methods of reducing plasma level of macrophage migratory inhibitory factor in patients” (priority 2020, dated 2025).)
